Where two headings read alike, the source gives them in different places.

Data set [1] deals with T1, BSA (Bos taurus, UniProt P02769).
T1 construct: gene ALB
Also noted: Intact protein LC/MS covalent labelling, fragments in pools of five, 200 uM each, 4 °C. As to conditions: 24 h, 4 °C, pool of five; 200 µM; covalent.

Data set [2] addresses T2, NNMT (hNNMT) (Homo sapiens, UniProt P40261).
T2 construct: wild type, N-terminal His6 tag kept (no cleavage described), E. coli, construct 31248 Da
T2 sequence (P40261 1-264): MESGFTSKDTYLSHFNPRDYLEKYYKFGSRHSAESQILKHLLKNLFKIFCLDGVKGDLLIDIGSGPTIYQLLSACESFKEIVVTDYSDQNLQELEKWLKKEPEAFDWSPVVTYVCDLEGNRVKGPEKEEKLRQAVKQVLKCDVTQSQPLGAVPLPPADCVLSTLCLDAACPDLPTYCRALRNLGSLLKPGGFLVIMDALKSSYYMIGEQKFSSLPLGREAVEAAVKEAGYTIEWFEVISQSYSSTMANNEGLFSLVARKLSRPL
Details: Intact protein LC/MS covalent labelling, fragments in pools of five, 200 uM each, 4 °C. The settings on record: 24 h, 4 °C, pool of five; 200 µM; covalent.

The target of data set [3] is T3, NUDT7 (Homo sapiens, UniProt P0C024).
T3 construct: residues 14-235, E. coli, pNIC28-Bsa4, N-terminal His6 tag removed by TEV, construct 26672 Da
T3 sequence (P0C024 14-235): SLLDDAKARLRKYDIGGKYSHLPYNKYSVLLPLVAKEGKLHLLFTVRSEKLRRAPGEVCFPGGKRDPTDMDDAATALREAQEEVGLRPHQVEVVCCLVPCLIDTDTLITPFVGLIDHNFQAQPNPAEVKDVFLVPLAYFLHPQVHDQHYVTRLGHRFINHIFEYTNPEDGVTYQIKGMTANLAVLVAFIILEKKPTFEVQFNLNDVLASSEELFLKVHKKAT
Also noted: Intact protein LC/MS covalent labelling, fragments in pools of five, 200 uM each, 4 °C. The settings on record: 24 h, 4 °C, pool of five; 200 µM; covalent.

The target of data set [4] is T4, OTUB2 (OTUB2A) (Homo sapiens, UniProt Q96DC9).
T4 construct: full length residues 1-234, E. coli BL21(DE3)-R3, His tag removed by TEV, construct 27312 Da
T4 sequence (Q96DC9 1-234): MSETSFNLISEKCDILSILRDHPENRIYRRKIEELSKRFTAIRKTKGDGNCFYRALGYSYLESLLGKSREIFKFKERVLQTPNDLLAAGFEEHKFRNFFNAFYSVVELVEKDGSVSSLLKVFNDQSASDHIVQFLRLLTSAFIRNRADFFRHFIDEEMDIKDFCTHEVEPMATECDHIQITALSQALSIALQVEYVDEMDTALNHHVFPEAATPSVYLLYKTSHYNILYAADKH
Details: Intact protein LC/MS covalent labelling, fragments in pools of five, 200 uM each, 4 °C. The settings on record: 24 h, 4 °C, pool of five; 200 µM; covalent.

Data set [5] has as its target T5, PCAF (Homo sapiens, UniProt Q92831).
T5 construct: gene KAT2B
Details: Intact protein LC/MS covalent labelling, fragments in pools of five, 200 uM each, 4 °C. As to conditions: 24 h, 4 °C, pool of five; 200 µM; covalent.

Data set [6] is described as follows: in vitro. Also noted: species or system CCD841, HEK293. As to conditions: human, hb2 cells, read-out: HB-2 Cells Viability (%).
Data set [7] is described as follows: in vitro. Also noted: species or system HB2, HEK293. The settings on record: human, ccd841 cells.
The nature of data set [8]: in vitro. The settings on record: human, hek293 cells. Also noted: species or system HB2, CCD841.

T5 sequence (Q92831 whole entry): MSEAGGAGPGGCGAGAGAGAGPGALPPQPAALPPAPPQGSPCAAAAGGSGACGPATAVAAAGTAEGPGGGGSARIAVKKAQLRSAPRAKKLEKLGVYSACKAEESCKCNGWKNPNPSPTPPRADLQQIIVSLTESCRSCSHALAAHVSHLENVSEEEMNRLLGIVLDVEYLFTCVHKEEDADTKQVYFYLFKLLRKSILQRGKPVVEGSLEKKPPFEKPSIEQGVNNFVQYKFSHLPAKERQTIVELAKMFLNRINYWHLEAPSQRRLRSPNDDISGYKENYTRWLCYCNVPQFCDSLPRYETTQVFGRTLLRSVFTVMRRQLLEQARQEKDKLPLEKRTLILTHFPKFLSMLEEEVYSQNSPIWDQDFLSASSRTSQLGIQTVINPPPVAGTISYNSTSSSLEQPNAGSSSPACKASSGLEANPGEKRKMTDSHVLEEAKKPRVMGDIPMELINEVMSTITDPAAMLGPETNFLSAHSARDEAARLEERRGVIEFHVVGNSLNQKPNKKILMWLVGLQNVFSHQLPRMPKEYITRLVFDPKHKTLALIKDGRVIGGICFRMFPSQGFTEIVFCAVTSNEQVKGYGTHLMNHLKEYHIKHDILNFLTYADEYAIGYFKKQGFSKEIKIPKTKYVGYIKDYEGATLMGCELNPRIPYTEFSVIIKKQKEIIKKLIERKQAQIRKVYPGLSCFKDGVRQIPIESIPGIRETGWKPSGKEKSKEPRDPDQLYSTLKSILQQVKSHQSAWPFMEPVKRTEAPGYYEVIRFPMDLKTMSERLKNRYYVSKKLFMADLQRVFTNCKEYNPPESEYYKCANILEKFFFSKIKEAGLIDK
T1 sequence (P02769 whole entry): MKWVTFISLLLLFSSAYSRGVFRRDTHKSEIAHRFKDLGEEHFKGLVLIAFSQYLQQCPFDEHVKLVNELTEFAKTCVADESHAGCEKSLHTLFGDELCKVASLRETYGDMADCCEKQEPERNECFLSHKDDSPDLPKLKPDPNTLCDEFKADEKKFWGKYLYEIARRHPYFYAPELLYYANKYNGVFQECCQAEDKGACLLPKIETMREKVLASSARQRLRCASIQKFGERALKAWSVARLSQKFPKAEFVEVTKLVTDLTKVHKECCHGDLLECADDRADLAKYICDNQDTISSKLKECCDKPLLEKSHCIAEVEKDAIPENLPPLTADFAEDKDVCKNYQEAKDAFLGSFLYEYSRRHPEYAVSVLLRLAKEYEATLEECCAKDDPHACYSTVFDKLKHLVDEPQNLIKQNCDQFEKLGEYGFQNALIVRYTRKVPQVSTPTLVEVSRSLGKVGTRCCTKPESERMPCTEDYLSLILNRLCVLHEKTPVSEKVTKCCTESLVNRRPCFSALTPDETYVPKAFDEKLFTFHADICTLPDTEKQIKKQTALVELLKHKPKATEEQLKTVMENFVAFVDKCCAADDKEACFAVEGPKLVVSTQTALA

For the compound `C=CC(=O)N1CCCC1C1COCCC1(C)O` (stereo not drawn) [PCM-0102571], the BSA in data set [1] turned out to be 0. This compound had an NNMT in data set [2] of 0. The compound also showed an NUDT7 in data set [3] of 0. Also, the OTUB2 in data set [4] is reported as 0. Further, in data set [5], the PCAF is given as 0. Moreover, the viability at 48 h, 10 µM is 107% in data set [6], 107% in data set [7] and 104% in data set [8].
For `O=C(CCl)Nc1cccnc1Cl` [PCM-0102274], in data set [1], the BSA came out at 0. For the same compound, in data set [2], the NNMT turned out to be 0. In data set [3], this compound displayed an NUDT7 of 0. The compound further showed an OTUB2 in data set [4] of 0. Moreover, the PCAF in data set [5] is given as 0. Further, the viability at 48 h, 10 µM in data set [6] worked out at 84.4%; in data set [7] it was 88.8%; in data set [8], 81.4%.
As for `C=CC(=O)Nc1ccc(N2CCCC2=O)cc1` [PCM-0102145], the BSA in data set [1] was 0. In data set [2], this compound showed an NNMT of 0.14. Besides, the NUDT7 in data set [3] is listed as 0. This compound also showed an OTUB2 in data set [4] of 0. The PCAF in data set [5] is 0. In addition, the results for the viability at 48 h, 10 µM in data set [6], in data set [7] and in data set [8] were 101%, 125% and 91.4%, respectively.
In data set [1], `O=C(CCl)Nc1cccc(Cl)c1N1CCOCC1` [PCM-0102893] returned a BSA of 0. Besides, the NNMT in data set [2] is recorded as 0.62. The compound also showed an NUDT7 in data set [3] of 0.14. This compound returned an OTUB2 in data set [4] of 0. In data set [5], this compound displayed a PCAF of 0. Moreover, the viability at 48 h, 10 µM was determined as 51.2% in data set [6], 78% in data set [7] and 26.9% in data set [8].
Regarding `CC(NC(=O)CCl)c1ccccc1` (stereo not drawn) [PCM-0102128], the BSA in data set [1] was found to be 0. This compound showed an NNMT in data set [2] of 0. This compound also returned an NUDT7 in data set [3] of 0.13. The same compound returned an OTUB2 in data set [4] of 0.42. The PCAF in data set [5] is listed as 0. For the same compound, the results for the viability at 48 h, 10 µM in data set [6], in data set [7] and in data set [8] were 84.4%, 85.5% and 84.3%, respectively.
In data set [1], `O=C(CCl)Nc1nc2c(s1)CCC2` [PCM-0102457] returned a BSA of 0. In data set [2], the NNMT is 0.59. This compound displayed an NUDT7 in data set [3] of 0.37. This compound also yielded an OTUB2 in data set [4] of 0. The compound also displayed a PCAF in data set [5] of 0. Besides, the viability at 48 h, 10 µM in data set [6] was 42.3%; in data set [7], 61%; in data set [8] it was 43.3%.
Turning to `C=CC(=O)N1CCNC(=O)C1c1c(F)cccc1Cl` (stereo not drawn) [PCM-0102490], the BSA in data set [1] came out at 0. Moreover, the NNMT in data set [2] is recorded as 0. Also, the NUDT7 in data set [3] was found to be 0. This compound came in with an OTUB2 in data set [4] of 0. In data set [5], this compound registered a PCAF of 0. Moreover, the figures for the viability at 48 h, 10 µM in data set [6], in data set [7] and in data set [8] were 98.5%, 95.5% and 104%, respectively.
For `COc1cccc2sc(NC(=O)CCl)nc12.Cl` [PCM-0103067], in data set [1], the BSA amounted to 0. Besides, the NNMT in data set [2] is recorded as 1. The NUDT7 in data set [3] is 1. The OTUB2 in data set [4] is recorded as 0.16. For the same compound, the PCAF in data set [5] is 0. Besides, the viability at 48 h, 10 µM in data set [6] turned out to be 32.2%; in data set [7], 48.9%; in data set [8] it was 47.6%.
For `C=CC(=O)NC1CCCN(c2cc(C)nn2C)C1=O` (stereo not drawn) [PCM-0102991], the BSA in data set [1] is reported as 0. Also, the NNMT in data set [2] is recorded as 0. The same compound showed an NUDT7 in data set [3] of 0. The compound further registered an OTUB2 in data set [4] of 0. Also, in data set [5], the PCAF came out at 0. In addition, the viability at 48 h, 10 µM in data set [6] was determined as 98.2%; in data set [7], 113%; in data set [8] it was 94.5%.
`C=CC(=O)N1CCN(C2CCCN(C3CCOCC3)C2=O)CC1` (stereo not drawn) [PCM-0102886] yielded a BSA in data set [1] of 0. The NNMT in data set [2] is given as 0. The NUDT7 in data set [3] is 0. This compound also gave an OTUB2 in data set [4] of 0. This compound showed a PCAF in data set [5] of 0. Also, the viability at 48 h, 10 µM in data set [6] is 106%; in data set [7] it was 105%; in data set [8], 104%.
In the case of `O=C(CCl)NC(=O)c1cccc([N+](=O)[O-])c1` [PCM-0102460], in data set [1], the BSA worked out at 0. The compound further had an NNMT in data set [2] of 0.12. Moreover, the NUDT7 in data set [3] is 0. The OTUB2 in data set [4] is on record as 0. This compound also registered a PCAF in data set [5] of 0. For the same compound, the viability at 48 h, 10 µM in data set [6] turned out to be 99.8%; in data set [7], 95.9%; in data set [8], 117%.
`C=CC(=O)N1CCC(CN)CC1.Cl` [PCM-0102467] registered a BSA in data set [1] of 0. In data set [2], this compound had an NNMT of 0. The compound further yielded an NUDT7 in data set [3] of 0. Also, the OTUB2 in data set [4] came out at 0. In data set [5], this compound showed a PCAF of 0. The viability at 48 h, 10 µM is 95.4% in data set [6], 105% in data set [7] and 91% in data set [8].
As to `O=C(CCl)Nc1cccc(Cl)c1Cl` [PCM-0102797], in data set [1], the BSA is 0. In data set [2], this compound came in with an NNMT of 0. The compound further registered an NUDT7 in data set [3] of 0.15. In data set [4], this compound came in with an OTUB2 of 0. The PCAF in data set [5] amounted to 0. Besides, the viability at 48 h, 10 µM is 44.2% in data set [6], 72.2% in data set [7] and 40.9% in data set [8].
In turn, `Cc1nc(C2(NC(=O)CCl)CCCCC2)no1` [PCM-0102983] came in with a BSA in data set [1] of 0. In data set [2], this compound displayed an NNMT of 0. In addition, the NUDT7 in data set [3] is given as 0.1. In addition, the OTUB2 in data set [4] came to 0. The PCAF in data set [5] is reported as 0. For the same compound, the values for the viability at 48 h, 10 µM in data set [6], in data set [7] and in data set [8] were 102%, 112% and 99.7%, respectively.
As to `CCOC(=O)N1CCN(C(=O)CCl)CC1` [PCM-0102861], the BSA in data set [1] is on record as 0. This compound gave an NNMT in data set [2] of 0. This compound gave an NUDT7 in data set [3] of 0. The compound also had an OTUB2 in data set [4] of 0. For the same compound, the PCAF in data set [5] stood at 0. The viability at 48 h, 10 µM in data set [6] amounted to 114%; in data set [7] it was 109%; in data set [8], 82.6%.
On to `CC(C)N(C(=O)CCl)C(C)C` [PCM-0103023], for which the BSA in data set [1] is on record as 0. Also, the NNMT in data set [2] came out at 0. Further, the NUDT7 in data set [3] is 0. The compound also had an OTUB2 in data set [4] of 0. In data set [5], the PCAF was 0. For the same compound, the results for the viability at 48 h, 10 µM in data set [6], in data set [7] and in data set [8] were 102%, 106% and 110%, respectively.
In data set [1], `NC(=O)c1ccsc1NC(=O)CCl` [PCM-0102314] returned a BSA of 0. Further, the NNMT in data set [2] came out at 0.32. The compound further yielded an NUDT7 in data set [3] of 0.18. For the same compound, the OTUB2 in data set [4] stood at 0. In data set [5], this compound returned a PCAF of 0. For the same compound, the viability at 48 h, 10 µM is 58.5% in data set [6], 74.4% in data set [7] and 33.7% in data set [8].
`CN(Cc1ccc2c(c1)OCCO2)C(=O)CCl` [PCM-0102958]: the BSA in data set [1] was determined as 0. The NNMT in data set [2] worked out at 0. In data set [3], this compound came in with an NUDT7 of 0.27. Also, the OTUB2 in data set [4] was determined as 0.09. Besides, the PCAF in data set [5] amounted to 0. For the same compound, the results for the viability at 48 h, 10 µM in data set [6], in data set [7] and in data set [8] were 74.4%, 81% and 52%, respectively.

What is called viability is a read-out of living cells in per cent, often relative to untreated cells.
